Assays:
[1] = target: T1, rat mGluR5 (Rattus norvegicus, UniProt P31424); experiment: mGluR5 assay on HEK-expressing rat mGluR5 (fluorescent cell based Ca2+ mobilization assay); conditions: for activation of rat mGluR5 receptors without co-addition of glutamate or mGluR5 agonist: HEK-rat mGluR5 cell line; for EC50: HEK-293 cells stably expressing rat mGluR5, no co-addition of glutamate, mean of at least three independent experiments in duplicate, read-out: Ca++ Flux (mean EC50)
T1 construct: expressed in transfected cells
Protocol: Positive functional expression of HEK-293 cells stably expressing rat mGluR5 receptor was determined by measuring intracellular Ca^2+ changes using a Fluorometric Imaging Plate Reader (FLIPR, Molecular Devices, Sunnyvale, Calif.) in response to glutamate or selective known mGluR5 agonists and antagonists. Rat mGluR5RT-PCR products in HEK-293 cells were sequenced and found 100% identical to rat mGluR5Genbank reference sequence (NM_017012). HEK-293 cells expressing rmGluR5 were maintained in media containing DMEM, dialyzed Fetal Bovine Serum (10%), Glutamax™ (2 mM), Penicillin (100 units/ml), Streptomycin (100 μg/ml), Geneticin (100 μg/ml) and Hygromycin-B (40 μg/ml) at 37° C./5% CO2.
After one day of incubation, cells were washed with assay buffer containing: 142 mM NaCl, 6 mM KCl, 1 mM […], 1 mM CaCl2, 20 mM HEPES, 1 g/L glucose, 0.125 mM sulfinpyrazone, pH 7.4. After 60 min of loading with 4 uM Fluo-4 (TefLabs, Austin, Tex.), the cells were washed three times with 50 μl of PBS Buffer and resuspended in 45 μl of assay Buffer. The plates were then transferred to a Fluorometric Imaging Plate Reader (FLIPR, Molecular Devices, Sunnyvale, Calif.) for the assessment of intracellular calcium flux. After monitoring the baseline fluorescence for 10 seconds, increasing concentrations of representative compound (from 0.01 to 60 μM) of the present invention diluted in Assay Buffer (15 μl of 4× dilutions) was added to the cell. The final DMSO concentration in the assay was 0.3%. In each experiment, fluorescence was then monitored as a function of time for 3 minutes and the data analyzed using Microsoft Excel and GraphPad Prism. Each data point was also measured two times.
Under these experimental conditions, this HEK-rat mGluR5 cell line is able to directly detect positive allosteric modulators without the need of co-addition of glutamate or mGluR5 agonist.
The concentration-response curves of representative compounds of the present invention were generated using the Prism GraphPad software (Graph Pad Inc, San Diego, USA). The curves were fitted to a four-parameter logistic equation:
(Y=Bottom+(Top−Bottom)/(1+10̂((Log EC50−X)*Hill Slope)
allowing determination of EC50 values.
The Table 5 below represents the mean EC50 obtained from at least three independent experiments of selected molecules performed in duplicate.

[2] = target: T2, mGluR5 (Rattus norvegicus, UniProt P31424); conditions: cited from earlier work
T2 construct: positive allosteric modulators of mGluR5 receptors in native preparations; endogenous in cells; host or cells: primary cortical astrocytes from Sprague-Dawley rat embryos (E16-19)
T2 sequence (P31424 21-1203): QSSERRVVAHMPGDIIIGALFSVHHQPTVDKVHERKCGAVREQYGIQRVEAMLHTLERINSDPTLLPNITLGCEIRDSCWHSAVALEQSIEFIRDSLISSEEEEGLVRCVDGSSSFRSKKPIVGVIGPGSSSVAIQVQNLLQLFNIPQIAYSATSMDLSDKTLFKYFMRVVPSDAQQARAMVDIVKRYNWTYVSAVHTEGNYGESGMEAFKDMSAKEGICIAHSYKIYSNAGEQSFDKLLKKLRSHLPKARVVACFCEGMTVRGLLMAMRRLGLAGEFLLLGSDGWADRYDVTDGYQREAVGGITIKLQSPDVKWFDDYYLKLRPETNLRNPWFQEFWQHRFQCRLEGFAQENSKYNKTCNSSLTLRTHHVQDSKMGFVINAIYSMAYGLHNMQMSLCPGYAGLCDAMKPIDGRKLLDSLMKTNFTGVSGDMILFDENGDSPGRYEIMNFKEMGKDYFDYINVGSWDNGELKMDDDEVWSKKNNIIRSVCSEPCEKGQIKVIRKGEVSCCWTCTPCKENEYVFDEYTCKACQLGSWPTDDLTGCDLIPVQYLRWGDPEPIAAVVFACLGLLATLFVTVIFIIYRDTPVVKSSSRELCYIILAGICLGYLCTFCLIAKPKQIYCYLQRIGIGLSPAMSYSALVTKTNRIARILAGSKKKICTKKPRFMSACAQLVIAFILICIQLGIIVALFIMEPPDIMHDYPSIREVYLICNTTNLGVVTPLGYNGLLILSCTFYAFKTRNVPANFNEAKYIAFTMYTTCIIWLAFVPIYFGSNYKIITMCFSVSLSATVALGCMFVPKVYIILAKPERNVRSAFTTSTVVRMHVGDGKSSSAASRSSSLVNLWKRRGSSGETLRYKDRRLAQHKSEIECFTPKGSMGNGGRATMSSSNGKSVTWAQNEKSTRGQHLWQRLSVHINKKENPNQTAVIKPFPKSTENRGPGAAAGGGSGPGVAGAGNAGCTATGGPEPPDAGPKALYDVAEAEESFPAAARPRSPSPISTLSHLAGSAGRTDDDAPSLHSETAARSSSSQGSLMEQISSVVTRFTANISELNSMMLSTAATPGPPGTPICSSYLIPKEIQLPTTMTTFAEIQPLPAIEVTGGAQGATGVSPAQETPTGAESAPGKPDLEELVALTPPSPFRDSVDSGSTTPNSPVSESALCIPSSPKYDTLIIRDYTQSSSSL

T1 sequence (P31424 21-1171 isoform P31424-2 limits assumed): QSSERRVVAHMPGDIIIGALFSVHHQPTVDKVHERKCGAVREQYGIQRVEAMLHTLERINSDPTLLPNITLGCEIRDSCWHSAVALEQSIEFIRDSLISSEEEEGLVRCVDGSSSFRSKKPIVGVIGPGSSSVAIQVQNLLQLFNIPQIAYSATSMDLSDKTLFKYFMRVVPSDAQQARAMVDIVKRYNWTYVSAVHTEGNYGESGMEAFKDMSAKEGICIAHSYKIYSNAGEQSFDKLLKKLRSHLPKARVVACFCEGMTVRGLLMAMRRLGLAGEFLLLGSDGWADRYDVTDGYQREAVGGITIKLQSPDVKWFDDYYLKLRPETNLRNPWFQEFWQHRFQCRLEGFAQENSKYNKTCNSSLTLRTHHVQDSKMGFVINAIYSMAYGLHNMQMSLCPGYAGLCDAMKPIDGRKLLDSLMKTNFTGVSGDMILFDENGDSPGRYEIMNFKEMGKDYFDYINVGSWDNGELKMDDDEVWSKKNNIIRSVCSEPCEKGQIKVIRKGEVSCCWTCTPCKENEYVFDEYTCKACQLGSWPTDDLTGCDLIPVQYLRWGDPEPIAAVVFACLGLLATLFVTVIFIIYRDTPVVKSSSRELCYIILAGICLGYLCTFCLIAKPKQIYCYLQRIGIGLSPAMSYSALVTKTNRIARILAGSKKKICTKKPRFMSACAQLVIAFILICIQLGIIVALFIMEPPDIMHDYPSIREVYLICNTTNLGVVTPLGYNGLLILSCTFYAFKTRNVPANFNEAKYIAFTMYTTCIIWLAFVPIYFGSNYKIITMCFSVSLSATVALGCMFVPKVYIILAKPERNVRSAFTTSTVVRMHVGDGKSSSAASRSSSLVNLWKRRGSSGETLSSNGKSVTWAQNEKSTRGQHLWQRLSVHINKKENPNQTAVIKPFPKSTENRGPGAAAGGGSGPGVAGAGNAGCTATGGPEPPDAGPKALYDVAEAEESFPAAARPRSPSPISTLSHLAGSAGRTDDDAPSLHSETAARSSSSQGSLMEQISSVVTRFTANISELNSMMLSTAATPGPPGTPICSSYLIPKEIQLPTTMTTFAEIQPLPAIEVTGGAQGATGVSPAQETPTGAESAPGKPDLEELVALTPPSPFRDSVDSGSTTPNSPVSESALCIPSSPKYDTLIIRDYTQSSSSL

Row | Structure (SMILES) | EC50 [1] [µM] | further results
1 | N#Cc1cccc(C(=O)Nc2cc(-c3ccccc3)nn2-c2ccccc2)c1 [CDPPB, reference compound] | – | activation of rat mGluR5 receptors without co-addition of glutamate or mGluR5 agonist [1]: activating; activity in rat cortical astrocytes culture in the absence of added glutamate [2]: inactive
2 | O=C(Nc1ccc(Cl)cc1CN1C(=O)c2ccccc2C1=O)c1ccccc1O [CPPHA, reference compound] | – | activation of rat mGluR5 receptors without co-addition of glutamate or mGluR5 agonist [1]: activating; activity in rat cortical astrocytes culture in the absence of added glutamate [2]: inactive
3 | Fc1cccc(/C=N/N=C/c2cccc(F)c2)c1 [DFB, reference compound] | – | activation of rat mGluR5 receptors without co-addition of glutamate or mGluR5 agonist [1]: activating; activity in rat cortical astrocytes culture in the absence of added glutamate [2]: inactive
4 | O=C(c1ccc(F)c(F)c1)N1CCC[C@H](c2nc(Cc3ccc(F)cc3)no2)C1 [Example 2, (3,4-Difluoro-phenyl)-{(S)-3-[3-(4-fluoro-benzyl)-[1,2,4]oxadiazol-5-yl]-piperidin-1-yl}-methanone] | < 1 | –
5 | O=C(c1ccc(F)c(F)c1)N1CCC[C@H](c2noc(Cc3ccc(F)cc3)n2)C1 [Example 3, (3,4-Difluoro-phenyl)-{(S)-3-[5-(4-fluoro-benzyl)-[1,2,4]oxadiazol-3-yl]-piperidin-1-yl}-methanone] | < 1 | –
6 | O=C(c1ccc(F)cc1)N1CCC[C@H](c2noc(Cc3ccc(F)cc3)n2)C1 [Example 4, {(S)-3-[5-(4-Fluoro-benzyl)-[1,2,4]oxadiazol-3-yl]-piperidin-1-yl}-(4-fluoro-phenyl)-methanone] | < 1 | –
7 | C[C@@H](c1ccccc1)c1nc([C@H]2CCCN(C(=O)c3ccc(F)cc3)C2)no1 [Example 5, (4-Fluoro-phenyl)-{(S)-3-[5-((S)-1-phenyl-ethyl)-[1,2,4]oxadiazol-3-yl]-piperidin-1-yl}-methanone] | 1 to 10 | –
8 | C[C@H](c1ccccc1)c1nc([C@H]2CCCN(C(=O)c3ccc(F)cc3)C2)no1 [Example 6, (4-Fluoro-phenyl)-{(S)-3-[5-((R)-1-phenyl-ethyl)-[1,2,4]oxadiazol-3-yl]-piperidin-1-yl}-methanone] | > 10 | –
9 | O=C(c1ccc(F)cc1)N1CCC[C@H](c2noc(Cc3ccccc3)n2)C1 [Example 7, [(S)-3-(5-Benzyl-[1,2,4]oxadiazol-3-yl)-piperidin-1-yl]-(4-fluoro-phenyl)-methanone] | < 1 | melting point: 75 °C
10 | O=C(c1ccc(F)cc1)N1CCC[C@H](c2noc([C@@H](O)c3ccccc3)n2)C1 [Example 8, (4-Fluoro-phenyl)-{(S)-3-[5-((S)-hydroxy-phenyl-methyl)-[1,2,4]oxadiazol-3-yl]-piperidin-1-yl}-methanone] | > 10 | melting point: 168 to 172 °C
11 | O=C(c1ccc(F)cc1)N1CCC[C@H](c2noc([C@H](O)c3ccccc3)n2)C1 [Example 9, (4-Fluoro-phenyl)-{(S)-3-[5-((R)-hydroxy-phenyl-methyl)-[1,2,4]oxadiazol-3-yl]-piperidin-1-yl}-methanone] | 1 to 10 | –
12 | O=C(c1ccc(F)cc1)N1CCC[C@H](c2noc(CCc3ccccc3)n2)C1 [Example 10, (4-Fluoro-phenyl)-[(S)-3-(5-phenethyl-[1,2,4]oxadiazol-3-yl)-piperidin-1-yl]-methanone] | 1 to 10 | –
13 | O=C(c1ccccc1)c1nc([C@H]2CCCN(C(=O)c3ccc(F)cc3)C2)no1 [Example 11, {3-[(S)-1-(4-Fluoro-benzoyl)-piperidin-3-yl]-[1,2,4]oxadiazol-5-yl}-phenyl-methanone] | 1 to 10 | melting point: 80 to 83 °C
14 | O=C(c1ccc(F)cc1)N1CCC[C@H](c2noc(Nc3ccccc3)n2)C1 [Example 12, (4-Fluoro-phenyl)-[(S)-3-(5-phenylamino-[1,2,4]oxadiazol-3-yl)-piperidin-1-yl]-methanone] | 1 to 10 | –
15 | O=C(c1ccc(F)cc1)N1CCC[C@H](c2noc(NCc3ccc(F)cc3)n2)C1 [Example 13, {(S)-3-[5-(4-Fluoro-benzylamino)-[1,2,4]oxadiazol-3-yl]-piperidin-1-yl}-(4-fluoro-phenyl)-methanone] | 1 to 10 | –
16 | O=C(c1ccc(F)cc1)N1CCC[C@H](n2nnc(Cc3ccccc3)n2)C1 [Example 14, [(S)-3-(5-Benzyl-tetrazol-2-yl)-piperidin-1-yl]-(4-fluoro-phenyl)-methanone] | < 1 | –
17 | O=C(c1ccc(F)cc1)N1CCCC(c2nc(Oc3ccc(F)cc3)no2)C1 (centres unmarked) [Example 15, {3-[3-(4-Fluoro-phenoxy)-[1,2,4]oxadiazol-5-yl]-piperidin-1-yl}-(4-fluoro-phenyl)-methanone] | 1 to 10 | –
18 | O=C(c1ccc(F)cc1)N1CCCC(c2nc(Oc3ccccc3)no2)C1 (centres unmarked) [Example 16, (4-Fluoro-phenyl)-[3-(3-phenoxy-[1,2,4]oxadiazol-5-yl)-piperidin-1-yl]-methanone] | < 1 | melting point: 96 to 100 °C
19 | O=C(c1ccc(F)nc1)N1CCC[C@H](c2nc(Oc3ccccc3)no2)C1 [Example 17, (6-Fluoro-pyridin-3-yl)-[(S)-3-(3-phenoxy-[1,2,4]oxadiazol-5-yl)-piperidin-1-yl]-methanone] | < 1 | –
20 | O=C(c1ccc(F)nc1)N1CCC[C@H](c2nc(Oc3ccccc3F)no2)C1 [Example 18, {(S)-3-[3-(2-Fluoro-phenoxy)-[1,2,4]oxadiazol-5-yl]-piperidin-1-yl}-(6-fluoro-pyridin-3-yl)-methanone] | 1 to 10 | –
21 | O=C(c1ccc(F)nc1)N1CCC[C@H](c2nc(Oc3cccc(F)c3)no2)C1 [Example 19, {(S)-3-[3-(3-Fluoro-phenoxy)-[1,2,4]oxadiazol-5-yl]-piperidin-1-yl}-(6-fluoro-pyridin-3-yl)-methanone] | < 1 | –
22 | O=C(c1ccc(F)cc1)N1CCC[C@H](c2nc(Sc3ccccc3)no2)C1 [Example 20, (4-Fluoro-phenyl)-[(S)-3-(3-phenylsulfanyl-[1,2,4]oxadiazol-5-yl)-piperidin-1-yl]-methanone] | > 10 | –
23 | O=C(c1ccc(F)cc1)N1CCCC(c2nc(Oc3cccc(F)c3)no2)C1 (centres unmarked) [Example 21, {3-[3-(3-Fluoro-phenoxy)-[1,2,4]oxadiazol-5-yl]-piperidin-1-yl}-(4-fluoro-phenyl)-methanone] | < 1 | melting point: 99 to 102 °C
24 | O=C(c1ccncc1F)N1CCC[C@H](c2nc(Oc3ccccc3)no2)C1 [Example 22, (3-Fluoro-pyridin-4-yl)-[(S)-3-(3-phenoxy-[1,2,4]oxadiazol-5-yl)-piperidin-1-yl]-methanone] | 1 to 10 | –

From patent US20100004284A1, “Novel Heterocyclic Compounds as Positive Allosteric Modulators of Metabotropic Glutamate Receptors” (ADDEX PHARMA SA, priority 2005, published 2010)
